Measurements taken from ChEMBL document CHEMBL1151681, “New Naphthalenyl Glucosides from the Roots of Juglans mandshurica” (J Nat Prod, 1996).
Values after ≈ are worked out from the molar mass of the structure shown.

Legend:
U-937 = assay: Cytotoxicity against human U937 cells by MTT assay; type: functional, cell-based
[1] = Cytotoxicity against human Hep3B cells by MTT assay; type: functional, cell-based, Hep 3B2

Structure (SMILES)	IC50 (U-937)	IC50 [1]
COc1cc(C(=O)OC[C@H]2O[C@@H](Oc3ccc(O)c4cccc(O)c34)[C@H](O)[C@@H](O)[C@@H]2O)cc(OC)c1O	50 µg/mL (≈ 96.4 µM)	> 100 µg/mL
O=C(OC[C@H]1O[C@@H](Oc2ccc(O)c3cccc(O)c23)[C@H](O)[C@@H](O)[C@@H]1O)c1cc(O)c(O)c(O)c1	30 µg/mL (≈ 61.2 µM)	> 100 µg/mL
